Experimental findings from patent US6716881B2, “Carbanilides used as pesticides” (Bayer Aktiengesellschaft, priority 1996, dated 2004) are described below.

In one data set the test system is Venturia inaequalis. The data set can be described thus: Venturia test (apple)/protective (Example B, spray liquor concentration). Type of data set: in vivo. Conditions: protective, 100 ppm in spray liquor, evaluation 12 days after inoculation. As for the experimental part: Venturia Test (Apple)/Protective
(§1) To produce a suitable preparation of active compound, 1 part by weight of active compound is mixed with the stated amounts of solvent and emulsifier, and the concentrate is diluted with water to the desired concentration.
To test for protective activity, young plants are sprayed with the preparation of active compound until dew-moist. After the spray-coating has dried on, the plants are inoculated with an aqueous conidia suspension of the causative organism of apple scab Venturia inaequalis and then remain in an incubation cabin at 20° C. and 100% relative atmospheric humidity for 1 day.
(§2) The plants are then placed in a greenhouse at 23° C. and a relative atmospheric humidity of approximately 70%.
Evaluation is carried out 12 days after the inoculation. 0% means an efficacy which corresponds to that of the untreated control, while an efficacy of 100% means that no infection is observed.

The test system of data set [1] is caterpillars of diamond-back moth (Plutella maculipennis). The data set can be described thus: Plutella test. Conditions: cabbage leaves dipped, active compound concentration 0.1 %. Type of data set: in vivo. The protocol: To produce a suitable preparation of active compound, 1 part by weight of active compound is mixed with the stated amount of solvent and the stated amount of emulsifier, and the concentrate is diluted with water to the desired concentration.
Cabbage leaves (Brassica oleracea) are treated by being dipped into the preparation of active compound of the desired concentration and are populated with caterpillars of diamond-back moth (Plutella maculipennis) while the leaves are still moist.
After the desired period of time, the kill in % is determined. 100% means that all the caterpillars have been killed; 0% means that none of the caterpillars have been killed.

For the next data set, the system named is Coriolus versicolor. The data set can be described thus: Inhibitory test with giant colonies of Basidiomycetes (Coriolus versicolor). Type of data set: cell-based. To be noted: after 3 or 7 days at 26° C., vs untreated control; for inhibition at 1 ppm / inhibition at 3 ppm / inhibition at 6 ppm: Trametes versicolor; for inhibition at 1 ppm / Inhibition of the growth of the hypha in % with Coriolus versicolor at an active compound concentration of 1 ppm: 1 ppm in agar; for inhibition at 1 ppm: read-out: Inhibition of the growth of the hypha in % with Coriolus versicolor at an active compound concentration of 1 ppm; for inhibition at 3 ppm / Inhibition of the growth of the hypha in % with Coriolus versicolor at an active compound concentration of 3 ppm: 3 ppm in agar; for inhibition at 3 ppm: read-out: Inhibition of the growth of the hypha in % with Coriolus versicolor at an active compound concentration of 3 ppm; for inhibition at 6 ppm / Inhibition of the growth of the hypha in % with Coriolus versicolor at an active compound concentration of 6 ppm: 6 ppm in agar; for inhibition at 6 ppm: read-out: Inhibition of the growth of the hypha in % with Coriolus versicolor at an active compound concentration of 6 ppm. The protocol: (§3) Inhibitory Test with Giant Colonies of Basidiomycetes.
(§4) To produce a suitable preparation of active compound, 0.2 parts by weight of active compound are admixed with 99.8 parts by weight of the abovementioned solvent.
(§5) An agar which has been prepared using malt extract peptone is mixed in the liquid state with the preparation of active compound at the particular desired application rate. After the agar has set, the resulting nutrient medium is incubated at 26° C. with pieces of mycelium which had been punched out of colonies of Coniophora puteana or Coriolus versicolor.
(§6) Evaluation is carried out after 3 or 7 days' storage at 26° C. by measuring the growth of the hypha and scoring the resulting inhibition in percent in comparison to the untreated control. 0% means an inhibition of growth which corresponds to that of the untreated control, while an inhibition of growth of 100% means that no growth of the hypha is observed.

Another data set relates to Coniophora puteana. Briefly: Inhibitory test with giant colonies of Basidiomycetes (Coniophora puteana). Type of data set: cell-based. Conditions: after 3 or 7 days at 26° C., vs untreated control; for inhibition at 1 ppm / Inhibition of the growth of the hypha in % with Coniophora puteana at an active compound concentration of 1 ppm: 1 ppm in agar; for inhibition at 1 ppm: read-out: Inhibition of the growth of the hypha in % with Coniophora puteana at an active compound concentration of 1 ppm; for inhibition at 3 ppm / Inhibition of the growth of the hypha in % with Coniophora puteana at an active compound concentration of 3 ppm: 3 ppm in agar; for inhibition at 3 ppm: read-out: Inhibition of the growth of the hypha in % with Coniophora puteana at an active compound concentration of 3 ppm; for inhibition at 6 ppm / Inhibition of the growth of the hypha in % with Coniophora puteana at an active compound concentration of 6 ppm: 6 ppm in agar; for inhibition at 6 ppm: read-out: Inhibition of the growth of the hypha in % with Coniophora puteana at an active compound concentration of 6 ppm. The protocol:
as §3, §4, §5, §6

In another data set the test system is Podosphaera leucotricha. The data set can be described thus: Podosphaera test (apple)/protective. Type of data set: in vivo. Conditions: protective, 100 ppm in spray liquor, evaluation 10 days after inoculation. The protocol: Podosphaera Test (Apple)/Protective
as §1
To test for protective activity, young plants are sprayed with the preparation of active compound until dew-moist. After the spray-coating has dried on, the plants are inoculated by dusting with conidia of the causative organism of apple mildew Podosphaera leucotricha.
as §2
Evaluation is carried out 10 days after the inoculation. 0% means an efficacy which corresponds to that of the untreated control, while an efficacy of 100% means that no infection is observed.

Regarding `Cc1nc(C(F)(F)F)c(C(=O)Nc2ccccc2Oc2ccccc2)s1`, the “Efficacy in % at an active compound concentration in the spray liquor of 100 ppm” value (shortened to “Efficacy in %”) in the data set on Venturia inaequalis stood at 94%.

As to `CC1=C(C(=O)Nc2ccccc2OCc2cc(Cl)cc(Cl)c2)SCCO1`, in data set [1], the “Degree of kill in % after 7 d” value is 100%.

Turning to `Cc1cccc(COc2ccccc2NC(=O)c2cn(C)nc2C)c1`, in data set [1], the “Degree of kill in % after 7 d” value was determined as 100%.

Turning to `O=C(Nc1ccccc1OCc1ccccc1)C1=C(C(F)(F)F)OCCS1`, the “Degree of kill in % after 7 d” value in data set [1] was determined as 90%.

Regarding `Cc1ccccc1OCc1ccccc1NC(=O)c1ccccc1C(F)(F)F`, the “Degree of kill in % after 7 d” value in data set [1] was 100%.

Usually melting point stands for the temperature of the solid-liquid transition. `Cn1cc(C(=O)Nc2ccccc2Oc2ncnc(F)c2F)c(C(F)(F)F)n1` [Example 3, 2-(4,5-difluoro-pyrimdyl-6-oxy)-1-methyl-3-trifluoro-methyl-1-pyrazole-4-carboxanilide] had a melting point of 197 °C.

As for `Cn1cc(C(=O)Nc2ccccc2C=Cc2ccccc2)c(C(F)(F)F)n1` [Example 16], the melting point was found to be 117 °C. In the data set on Coriolus versicolor, the inhibition at 1 ppm turned out to be 100%, the inhibition at 3 ppm came out at 100% and the inhibition at 6 ppm stood at 100%. Moreover, in the data set with Coniophora puteana, the inhibition at 1 ppm turned out to be 80%, the inhibition at 3 ppm came out at 100% and the inhibition at 6 ppm worked out at 100%.

As for `Cn1cc(C(=O)Nc2ccccc2C=Cc2ccccc2)c(C(F)F)n1` [Example 20], the melting point amounted to 122 °C. For the same compound, in the data set on Coriolus versicolor, the inhibition at 1 ppm stood at 100%, the inhibition at 3 ppm came to 100% and the inhibition at 6 ppm turned out to be 100%. Moreover, in the data set with Coniophora puteana, the inhibition at 1 ppm was found to be 100%, the inhibition at 3 ppm stood at 100% and the inhibition at 6 ppm was 100%.

Consider `Cc1ccc(SCc2ccccc2NC(=O)c2cn(C)nc2C(F)F)cc1` [Example 46], for which the melting point stood at 108 °C. In addition, in the data set on Coriolus versicolor, the inhibition at 1 ppm came out at 100%, the inhibition at 3 ppm is 100% and the inhibition at 6 ppm amounted to 100%. Moreover, in the data set on Coniophora puteana, the inhibition at 1 ppm was determined as 80%, the inhibition at 3 ppm came out at 100% and the inhibition at 6 ppm worked out at 100%.

As to `Cc1ccc(OCc2ccccc2NC(=O)c2cn(C)nc2C(F)F)c(C)c1` [Example 50], the melting point was 120 °C. Further, in the data set on Coriolus versicolor, the inhibition at 1 ppm amounted to 100%, the inhibition at 3 ppm is 100% and the inhibition at 6 ppm was found to be 100%. Also, in the data set with Coniophora puteana, the inhibition at 1 ppm amounted to 100%, the inhibition at 3 ppm was found to be 100% and the inhibition at 6 ppm amounted to 100%.

On to `Cc1cccc(OCc2ccccc2NC(=O)c2cn(C)nc2C(F)F)c1` [Example 139], for which, in the data set on Coriolus versicolor, the “Inhibition of the growth of the hypha in % with Coriolus versicolor at an active compound concentration of 1 ppm” value is recorded as 100%, the “Inhibition of the growth of the hypha in % with Coriolus versicolor at an active compound concentration of 3 ppm” value is listed as 100% and the “Inhibition of the growth of the hypha in % with Coriolus versicolor at an active compound concentration of 6 ppm” value turned out to be 100%. Further, in the data set with Coniophora puteana, the “Inhibition of the growth of the hypha in % with Coniophora puteana at an active compound concentration of 1 ppm” value was 100%, the “Inhibition of the growth of the hypha in % with Coniophora puteana at an active compound concentration of 3 ppm” value is recorded as 100% and the “Inhibition of the growth of the hypha in % with Coniophora puteana at an active compound concentration of 6 ppm” value is reported as 100%.

As for `CC1=C(C(=O)Nc2ccccc2COc2ccccc2)SCCO1` [Example 141], in the data set on Coriolus versicolor, the “Inhibition of the growth of the hypha in % with Coriolus versicolor at an active compound concentration of 1 ppm” value was 90%, the “Inhibition of the growth of the hypha in % with Coriolus versicolor at an active compound concentration of 3 ppm” value came out at 100% and the “Inhibition of the growth of the hypha in % with Coriolus versicolor at an active compound concentration of 6 ppm” value stood at 100%. For the same compound, in the data set on Coniophora puteana, the “Inhibition of the growth of the hypha in % with Coniophora puteana at an active compound concentration of 1 ppm” value was 80%, the “Inhibition of the growth of the hypha in % with Coniophora puteana at an active compound concentration of 3 ppm” value is 100% and the “Inhibition of the growth of the hypha in % with Coniophora puteana at an active compound concentration of 6 ppm” value was 100%.

As for `CC1=C(C(=O)Nc2ccccc2COc2cccc(C)c2)SCCO1` [Example 142], in the data set on Coriolus versicolor, the “Inhibition of the growth of the hypha in % with Coriolus versicolor at an active compound concentration of 1 ppm” value was 90%, the “Inhibition of the growth of the hypha in % with Coriolus versicolor at an active compound concentration of 3 ppm” value came to 90% and the “Inhibition of the growth of the hypha in % with Coriolus versicolor at an active compound concentration of 6 ppm” value was 100%. Besides, in the data set with Coniophora puteana, the “Inhibition of the growth of the hypha in % with Coniophora puteana at an active compound concentration of 1 ppm” value turned out to be 70%, the “Inhibition of the growth of the hypha in % with Coniophora puteana at an active compound concentration of 3 ppm” value was determined as 90% and the “Inhibition of the growth of the hypha in % with Coniophora puteana at an active compound concentration of 6 ppm” value is 100%.

For `CC1=C(C(=O)Nc2ccccc2COc2ccc(C)cc2)SCCO1` [Example 143], in the data set on Coriolus versicolor, the “Inhibition of the growth of the hypha in % with Coriolus versicolor at an active compound concentration of 1 ppm” value is given as 100%, the “Inhibition of the growth of the hypha in % with Coriolus versicolor at an active compound concentration of 3 ppm” value is 100% and the “Inhibition of the growth of the hypha in % with Coriolus versicolor at an active compound concentration of 6 ppm” value was 100%. For the same compound, in the data set with Coniophora puteana, the “Inhibition of the growth of the hypha in % with Coniophora puteana at an active compound concentration of 1 ppm” value is 80%, the “Inhibition of the growth of the hypha in % with Coniophora puteana at an active compound concentration of 3 ppm” value is 90% and the “Inhibition of the growth of the hypha in % with Coniophora puteana at an active compound concentration of 6 ppm” value stood at 100%.

Consider `CC1=C(C(=O)Nc2ccccc2COc2ccccc2C)SCCO1` [Example 144], for which, in the data set with Coriolus versicolor, the “Inhibition of the growth of the hypha in % with Coriolus versicolor at an active compound concentration of 1 ppm” value was 90%, the “Inhibition of the growth of the hypha in % with Coriolus versicolor at an active compound concentration of 3 ppm” value amounted to 100% and the “Inhibition of the growth of the hypha in % with Coriolus versicolor at an active compound concentration of 6 ppm” value is 100%. In addition, in the data set on Coniophora puteana, the “Inhibition of the growth of the hypha in % with Coniophora puteana at an active compound concentration of 1 ppm” value is recorded as 70%, the “Inhibition of the growth of the hypha in % with Coniophora puteana at an active compound concentration of 3 ppm” value stood at 90% and the “Inhibition of the growth of the hypha in % with Coniophora puteana at an active compound concentration of 6 ppm” value was 100%.

Consider `O=C(Nc1ccccc1Oc1ccccc1)c1ccccc1C(F)(F)F` [drawing 518], for which the “Efficacy in %” value in the data set on Podosphaera leucotricha came out at 100%.

`Cc1nn(C)cc1C(=O)Nc1ccccc1Oc1ccccc1` [drawing 519]: the “Efficacy in %” value in the data set with Podosphaera leucotricha was 96%.

`O=C(Nc1ccccc1Oc1ccccc1)c1ccccc1C(F)(F)F` [drawing 520]: the “Efficacy in %” value in the data set on Venturia inaequalis was 83%.

As for `Cc1nn(C)cc1C(=O)Nc1ccccc1Oc1ccccc1` [drawing 521], the “Efficacy in %” value with Venturia inaequalis is listed as 83%.

As to `Cn1cc(C(=O)Nc2ccccc2C=Cc2ccccc2)c(C(F)(F)F)n1` [drawing 523], the “Efficacy in %” value in the data set on Venturia inaequalis is reported as 97%.

Take `Cn1cc(C(=O)Nc2ccccc2C=Cc2ccccc2)c(C(F)F)n1` [drawing 524]: the “Efficacy in %” value in the data set with Venturia inaequalis is reported as 100%.

For the compound `Cc1ccc(SCc2ccccc2NC(=O)c2cn(C)nc2C(F)F)cc1` [drawing 525], the “Efficacy in %” value in the data set on Venturia inaequalis was found to be 100%.

With `Cc1ccc(OCc2ccccc2NC(=O)c2cn(C)nc2C(F)F)c(C)c1` [drawing 526], in the data set with Venturia inaequalis, the “Efficacy in %” value was 95%.

With `Cc1cccc(OCc2ccccc2NC(=O)c2cn(C)nc2C(F)(F)F)c1` [drawing 527], the “Efficacy in %” value with Venturia inaequalis turned out to be 90%.

As for `Cc1nc(C(F)(F)F)c(C(=O)Nc2ccccc2CSc2ccccc2)s1` [drawing 531], the “Degree of kill in % after 7 d” value in data set [1] is 100%.

As to `Cc1ccc(OCc2ccccc2NC(=O)c2cn(C)nc2C(F)F)c(C)c1` [drawing 532], the “Degree of kill in % after 7 d” value in data set [1] was 100%.

As to `Cc1nn(C)cc1C(=O)Nc1ccccc1CSc1ccc(Cl)cc1` [drawing 534], the “Degree of kill in % after 7 d” value in data set [1] stood at 100%.
